Experimental data: PubChem BioAssay (NCI)
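All cell lines were grown in 96-well plates and treated with compound for 48 hours. The concentration for 50% growth inhibition is given as GI50. The concentration for full growth arrest is given as TGI.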

Legend:
Experiment in all cases: DTP human tumour cell line panel, 48 h
[1] = system: 786-0 renal
[2] = system: A498 renal
[3] = system: A549 NSCLC
[4] = system: ACHN renal
[5] = system: BT-549 breast
[6] = system: CAKI-1 renal
[7] = system: CCRF-CEM leukemia
[8] = system: COLO 205 colon
[9] = system: DU-145 prostate
[10] = system: HCC-2998 colon
[11] = system: HCT-116 colon
[12] = system: HCT-15 colon
[13] = system: HL-60(TB) leukemia
[14] = system: HOP-62 NSCLC
[15] = system: HOP-92 NSCLC
[16] = system: HS 578T breast
[17] = system: HT29 colon
[18] = system: IGROV1 ovarian
[19] = system: K-562 leukemia
[20] = system: KM12 colon
[21] = system: LOX IMVI melanoma
[22] = system: M14 melanoma
[23] = system: MALME-3M melanoma
[24] = system: MCF7 breast
[25] = system: MDA-MB-231 breast
[26] = system: MDA-MB-435
[27] = system: MOLT-4 leukemia
[28] = system: NCI-H226 lung
[29] = system: NCI-H23 lung
[30] = system: NCI-H460 lung
[31] = system: NCI-H522 lung
[32] = system: NCI/ADR-RES ovarian
[33] = system: OVCAR-3 ovarian
[34] = system: OVCAR-4 ovarian
[35] = system: OVCAR-5 ovarian
[36] = system: OVCAR-8 ovarian
[37] = system: PC-3 prostate
[38] = system: RPMI-8226 leukemia
[39] = system: RXF 393 renal
[40] = system: SF-268 CNS
[41] = system: SF-295 CNS
[42] = system: SF-539 CNS
[43] = system: SK-MEL-2 melanoma
[44] = system: SK-MEL-28 melanoma
[45] = system: SK-MEL-5 melanoma
[46] = system: SK-OV-3 ovarian
[47] = system: SN12C renal
[48] = system: SNB-19 CNS
[49] = system: SNB-75 CNS
[50] = system: SR leukemia
[51] = system: SW-620 colon
[52] = system: T-47D breast
[53] = system: TK-10 renal
[54] = system: U251 CNS
[55] = system: UACC-257 melanoma
[56] = system: UACC-62 melanoma
[57] = system: UO-31 renal
[58] = system: EKVX NSCLC

## CN(C)C[C@H]1CCn2c(c(C3=C(c4cn(C)c5ccccc45)C(=O)NC3=O)c3ccccc32)C1
[1]
  GI50: 4.78 µM
  TGI: 9.29 µM
[2]
  GI50: 3.84 µM
  TGI: 9.08 µM
[3]
  GI50: 5.11 µM
  TGI: 11.7 µM
[4]
  GI50: 4.3 µM
  TGI: 9.87 µM
[5]
  GI50: 4.83 µM
  TGI: 9.53 µM
[6]
  GI50: 3.82 µM
  TGI: 8.74 µM
[7]
  GI50: 4.46 µM
  TGI: 12.4 µM
[8]
  GI50: 3.71 µM
  TGI: 7.5 µM
[9]
  GI50: 5.46 µM
  TGI: 10.8 µM
[10]
  GI50: 4.86 µM
  TGI: 9.16 µM
[11]
  GI50: 3.47 µM
  TGI: 7.27 µM
[12]
  GI50: 4.51 µM
  TGI: 14.8 µM
[13]
  GI50: 5.65 µM
  TGI: 11.3 µM
[14]
  GI50: 4.57 µM
  TGI: 8.58 µM
[15]
  GI50: 4.19 µM
  TGI: 10.9 µM
[16]
  GI50: 2.78 µM
  TGI: 10.1 µM
[17]
  GI50: 3.45 µM
  TGI: 11.5 µM
[18]
  GI50: 6.11 µM
  TGI: 12.2 µM
[19]
  GI50: 5.29 µM
  TGI: 10.8 µM
[20]
  GI50: 4.57 µM
  TGI: 8.66 µM
[21]
  GI50: 4.58 µM
  TGI: 8.56 µM
[22]
  GI50: 4.49 µM
  TGI: 8.47 µM
[23]
  GI50: 4.24 µM
  TGI: 8.56 µM
[24]
  GI50: 4.25 µM
  TGI: 9.36 µM
[25]
  GI50: 3.96 µM
  TGI: 10.3 µM
[26]
  GI50: 3.95 µM
  TGI: 7.9 µM
[27]
  GI50: 6.38 µM
  TGI: 14 µM
[28]
  GI50: 5.13 µM
  TGI: 14.1 µM
[29]
  GI50: 6.58 µM
  TGI: 15 µM
[30]
  GI50: 4.86 µM
  TGI: 9.55 µM
[31]
  GI50: 4.86 µM
  TGI: 9.17 µM
[32]
  GI50: 5.67 µM
  TGI: 14.2 µM
[33]
  GI50: 4.54 µM
  TGI: 8.97 µM
[34]
  GI50: 3.97 µM
  TGI: 12.5 µM
[35]
  GI50: 5.35 µM
  TGI: 17 µM
[36]
  GI50: 5.6 µM
  TGI: 13.2 µM
[37]
  GI50: 3.92 µM
  TGI: 8.56 µM
[38]
  GI50: 4.88 µM
  TGI: 10.5 µM
[39]
  GI50: 3.67 µM
  TGI: 7.18 µM
[40]
  GI50: 4.71 µM
  TGI: 9.04 µM
[41]
  GI50: 5.21 µM
  TGI: 11.3 µM
[42]
  GI50: 4.01 µM
  TGI: 7.73 µM
[43]
  GI50: 4.97 µM
  TGI: 9.23 µM
[44]
  GI50: 4.25 µM
  TGI: 8.02 µM
[45]
  GI50: 4.09 µM
  TGI: 7.71 µM
[46]
  GI50: 5.17 µM
  TGI: 11.5 µM
[47]
  GI50: 4.39 µM
  TGI: 9.66 µM
[48]
  GI50: 5.65 µM
  TGI: 16.6 µM
[49]
  GI50: 0.562 µM
  TGI: 5.16 µM
[50]
  GI50: 4.26 µM
  TGI: 11.1 µM
[51]
  GI50: 4.42 µM
  TGI: 8.89 µM
[52]
  GI50: 5.43 µM
  TGI: 11.2 µM
[53]
  GI50: 3.61 µM
  TGI: 8.77 µM
[54]
  GI50: 3.98 µM
  TGI: 8.2 µM
[55]
  GI50: 4.45 µM
  TGI: 8.45 µM
[56]
  GI50: 4.15 µM
  TGI: 7.98 µM
[57]
  GI50: 3.45 µM
  TGI: 7.31 µM

## O=C1/C(=C/c2ccc(F)c(F)c2)CN(C(=O)C(Cl)Cl)C/C1=C\c1ccc(F)c(F)c1
[1]
  GI50: 0.181 µM
  TGI: 0.357 µM
[2]
  GI50: 0.183 µM
  TGI: 0.55 µM
[3]
  GI50: 0.262 µM
  TGI: 1.09 µM
[4]
  GI50: 0.0776 µM
  TGI: 0.249 µM
[5]
  GI50: 0.0837 µM
  TGI: 0.34 µM
[6]
  GI50: 0.188 µM
  TGI: 0.551 µM
[7]
  GI50: 0.0266 µM
  TGI: > 100 µM
[8]
  GI50: 0.175 µM
  TGI: 0.756 µM
[9]
  GI50: 0.312 µM
  TGI: 0.925 µM
[58]
  GI50: 0.188 µM
  TGI: 0.506 µM
[10]
  GI50: 0.0934 µM
  TGI: 0.235 µM
[11]
  GI50: 0.0326 µM
  TGI: 0.12 µM
[12]
  GI50: 0.0303 µM
  TGI: 0.164 µM
[13]
  GI50: 0.113 µM
  TGI: 0.97 µM
[14]
  GI50: 0.239 µM
  TGI: 0.745 µM
[15]
  GI50: 0.211 µM
  TGI: 0.629 µM
[16]
  GI50: 0.261 µM
  TGI: 1.01 µM
[17]
  GI50: 0.0359 µM
[18]
  GI50: 0.0609 µM
  TGI: 0.264 µM
[19]
  GI50: 0.0235 µM
  TGI: > 100 µM
[20]
  GI50: 0.0497 µM
  TGI: 0.2 µM
[21]
  GI50: 0.0222 µM
  TGI: 0.0549 µM
[22]
  GI50: 0.168 µM
  TGI: 0.515 µM
[23]
  GI50: 0.199 µM
  TGI: 0.539 µM
[24]
  GI50: 0.0424 µM
  TGI: 0.181 µM
[25]
  GI50: 0.194 µM
  TGI: 0.692 µM
[26]
  GI50: 0.142 µM
  TGI: 0.324 µM
[27]
  GI50: 0.0491 µM
  TGI: > 100 µM
[28]
  GI50: 1.13 µM
  TGI: 5.72 µM
[29]
  GI50: 0.139 µM
  TGI: 0.428 µM
[30]
  GI50: 0.134 µM
  TGI: 0.444 µM
[31]
  GI50: 0.166 µM
  TGI: 0.503 µM
[32]
  GI50: 0.0633 µM
  TGI: 0.868 µM
[33]
  GI50: 0.0709 µM
  TGI: 0.234 µM
[34]
  GI50: 0.233 µM
  TGI: 1.24 µM
[35]
  GI50: 0.167 µM
  TGI: 0.421 µM
[36]
  GI50: 0.0564 µM
  TGI: 1.31 µM
[37]
  GI50: 0.0477 µM
  TGI: 0.273 µM
[38]
  GI50: 0.0186 µM
  TGI: 0.0871 µM
[39]
  GI50: 0.182 µM
  TGI: 0.399 µM
[40]
  GI50: 0.265 µM
  TGI: 0.982 µM
[41]
  GI50: 0.0454 µM
  TGI: 0.21 µM
[42]
  GI50: 0.094 µM
  TGI: 0.276 µM
[43]
  GI50: 0.262 µM
  TGI: 0.785 µM
[44]
  GI50: 0.208 µM
  TGI: 0.513 µM
[45]
  GI50: 0.19 µM
  TGI: 0.38 µM
[46]
  GI50: 0.492 µM
  TGI: 1.78 µM
[47]
  GI50: 0.112 µM
  TGI: 0.381 µM
[48]
  GI50: 0.0782 µM
  TGI: 0.274 µM
[49]
  GI50: 0.29 µM
  TGI: 1.3 µM
[50]
  GI50: 0.0128 µM
  TGI: > 100 µM
[51]
  GI50: 0.0215 µM
  TGI: 0.0554 µM
[52]
  GI50: 0.302 µM
  TGI: 2.05 µM
[53]
  GI50: 0.258 µM
  TGI: 0.84 µM
[54]
  GI50: 0.0331 µM
  TGI: 0.131 µM
[55]
  GI50: 0.259 µM
  TGI: 0.888 µM
[56]
  GI50: 0.172 µM
  TGI: 0.365 µM
[57]
  GI50: 0.0982 µM
  TGI: 0.238 µM
